Measurements from patent publication US20260193267A1, “Solid Forms of Naphthyridine Compounds” (AMGEN INC., priority 2023, published 2026).
“Also recorded” adds a separate entry of the source.

How the values were obtained:
[1] = Solubility of Form 1 in aqueous media; assay type: physicochemical; conditions: aqueous buffer; aqueous media at pHs of 1-8
[2] = Dynamic vapor sorption (DVS) moisture sorption; assay type: physicochemical
Procedure: DVS—Method 1: DVS was measured via a SMS (Surface Measurement Systems) DVS Resolution. The relative humidity at 25° C. was calibrated against the deliquescence point of LiCl, Mg(NO3)2 and KCl.
DVS—Method 2: Moisture sorption data was collected using a DVS vapor sorption analyzer. A sample size of approximately 10-20 mg was used in a glass or metal pan. Hygroscopicity was evaluated from 40 to 90 to 0 to 90 to 40% RH in increments of 5% RH or from 40 to 0 to 95 to 0 to 95% RH in increments of 10% RH. Data for adsorption and desorption cycles were collected. Equilibrium criteria were set at 0.002% weight change in 1 minute with a maximum equilibration time of 180 minutes.

[3] = Stability under compression forces representative of tableting; assay type: physicochemical; conditions: compression up to 200 MPa
[4] = Physical and chemical stability in excipient blends (ssNMR); assay type: physicochemical; conditions: 40° C./75% RH, 25° C./60% RH open, 40° C./75% RH closed
physchem = test: physchem
Description: Suitable nonlimiting examples of counterions for forming salts with Compound A include benzene sulfonic acid (BSA), toluene sulfonic acid (TSA), sulfuric acid, hydrochloric acid, malonic acid, naphthalene-2-sulfonic acid, methane sulfonic acid, oxalic acid, tartaric acid, ethane sulfonic acid, cyclamic acid, maleic acid, or phosphoric acid.

| solubility [1] [µg/mL] | change in form on DVS ([2]; 0-95% relative humidity at 25° C.) | form change by DSC and XRPD after compression [3] | physical and chemical stability by ssNMR [4] | pKa (physchem) | Structure (SMILES) | hygroscopicity by DVS ([2]; 0% to 95% relative humidity at 25° C.) | degradation related to the Maillard reaction ([4]; after 2 weeks) |
| --- | --- | --- | --- | --- | --- | --- | --- |
| > 10 | no observable change in form | no form change | physically and chemically stable | – | Nc1nc2cnc(C(=O)N3CCOC[C@@H]3c3ccc(C(F)(F)F)cc3)cc2c2c1COC2 [Form 1] | non-hygroscopic; also recorded: non-hygroscopicity | no evidence of degradation related to the Maillard reaction |
| – | – | – | – | 4.27 | Nc1nc2cnc(C(=O)N3CCOC[C@@H]3c3ccc(C(F)(F)F)cc3)cc2c2c1COC2 [Compound A] | – | – |
